Measured values: patent US9434734B2, “Substituted pyrazoloquinazolinones and pyrroloquinazolinones as allosteric modulators of group II metabotropic glutamate receptors” (Domain Therapeutics, priority 2012, dated 2016)
pIC50: −log10 of the molar value. Where a name gives a salt, the structure may show the parent alone.

Test system: not given
Test: not given
Conditions: not given

| Compound | melting point |
| --- | --- |
| Cn1c(=O)c2ccc(-c3ccnc(C(F)(F)F)c3)cc2n2nc(-c3ccnc(C(F)(F)F)c3)cc12 [Example 139, 4-Methyl-2,8-bis-(2-trifluoromethyl-pyridin-4-yl)-4H-pyrazolo[1,5-a]quinazolin-5-one] | > 250 °C |
| Cn1c(=O)c2ccc(-c3cccc(S(=O)(=O)NC(C)(C)CO)c3)cc2n2nc(C3CCOCC3)cc12 [Example 101, N-(2-Hydroxy-1,1-dimethyl-ethyl)-3-[4-methyl-5-oxo-2-(tetrahydro-pyran-4-yl)-4,5-dihydro-pyrazolo[1,5-a]quinazolin-8-yl]-benzenesulfonamide] | 223 to 226 °C |
| Cl.Cn1c(=O)c2ccc(-c3ccc(N)nc3)cc2n2nc(-c3ccnc(C(F)(F)F)c3)cc12 [Example 136, 8-(6-Amino-pyridin-3-yl)-4-methyl-2-(2-trifluoromethyl-pyridin-4-yl)-4H-pyrazolo[1,5-a]quinazolin-5-one] | > 250 °C |
| Cl.Cn1cc(-c2cc3n(C)c(=O)c4ccc(-c5cccnc5)cc4n3n2)cn1 [Example 126, 4-Methyl-2-(1-methyl-1H-pyrazol-4-yl)-8-pyridin-3-yl-4H-pyrazolo[1,5-a]quinazolin-5-one] | > 250 °C |
| CCc1nc(N)ccc1-c1ccc2c(=O)n(C)c3cc(-c4ccccc4)nn3c2c1.Cl [Example 27, 8-(6-Amino-2-ethyl-pyridin-3-yl)-4-methyl-2-phenyl-4H-pyrazolo[1,5-a]quinazolin-5-one] | 239 to 240 °C |
| CC(C)Cn1c(=O)c2ccc(-c3cccc(S(=O)(=O)N(C)C)c3)cc2n2nc(-c3ccccc3)cc12 [Example 41, 3-(4-isobutyl-5-oxo-2-phenyl-4,5-dihydro-pyrazolo[1,5-a]quinazolin-8-yl)-N,N-dimethyl-benzenesulfonamide] | 159 to 163 °C |
| CCCn1c(=O)c2ccc(-c3cc(C)nc(C)c3)cc2n2nc(C3CCCC3)cc12.Cl | > 250 °C |
| Cc1ccc(-c2ccc3c(=O)n(C)c4cc(-c5cc(C)nc(C)c5)nn4c3c2)cn1 (as salt: salt) [Example 117, 2-(2,6-Dimethyl-pyridin-4-yl)-4-methyl-8-(6-methyl-pyridin-3-yl)-4H-pyrazolo[1,5-a]quinazolin-5-one] | > 250 °C |
| COCc1cc2n(C)c(=O)c3ccc(-c4cc(C)nc(C)c4)cc3n2n1.Cl | > 250 °C |
| COc1ccc(-c2ccc3c(=O)n(C)c4cc(-c5cnn(C)c5)nn4c3c2)cc1 [Example 125, 8-(4-Methoxy-phenyl)-4-methyl-2-(1-methyl-1H-pyrazol-4-yl)-4H-pyrazolo[1,5-a]quinazolin-5-one] | 211 to 213 °C |
| Cc1cc(-c2ccc3c(=O)n(CC(F)(F)F)c4cc(C5CCCC5)nn4c3c2)cc(C)n1.Cl | > 250 °C |
| Cl.Cn1c(=O)c2ccc(-c3ccc(N)nc3C(F)(F)F)cc2n2nc(-c3ccccc3)cc12 | > 250 °C |
| COCc1cccc(-c2ccc3c(=O)n(C)c4cc(-c5ccccc5)nn4c3c2)c1 [Example 9, 8-(3-Methoxymethyl-phenyl)-4-methyl-2-phenyl-4H-pyrazolo[1,5-a]quinazolin-5-one] | 132 to 134 °C |

Molecular target: T1, human mGluR2 (hmGluR2) transiently over-expressed in HEK-293 cells (Homo sapiens, UniProt Q14416)
T1 construct: expressed in transfected cells; host or cells: HEK-293 cells, transient co-transfection by electroporation
Test: Human mGluR2 negative allosteric modulator evaluation using Ca++ functional assay (agonist and NAM activity)
Format: cell-based
Conditions: hmGluR2 in HEK-293 cells, EC80 glutamate, Fluo4AM calcium readout; read-out: mGluR2 negative allosteric modulator activity IC50
Experimental: Human mGluR2 Negative Allosteric Modulator Evaluation Using Ca^++ Functional Assay
Compounds of the present invention were tested successively for their agonist and negative allosteric modulator activities on human mGluR2 (hmGluR2) transiently over-expressed in HEK-293 cells. They exert agonist activity if they are able to activate mGluR2 by themselves, i.e., in absence of the endogenous agonist glutamate; and they exert negative allosteric modulator activity if they decrease the action of the endogenous agonist glutamate.
HEK-293 cells were maintained in Modified Eagle's Medium supplemented with 10% Foetal Calf Serum, 1% Penicillin/Streptomycin and 1% nonessential amino acids at 37° C./5% CO2.
Cells were plated after transfection onto polyornithine coated, clear bottom, black-walled, 96-well plates and cultured for 24 h.
Receptor activity was detected by changes in intracellular calcium measured using the fluorescent Ca^2+ sensitive dye, Fluo4AM (Molecular Probes).
The day of the assay, medium was aspirated and replaced during 3 hours by medium without serum supplemented with 1% Glutamax, 1% Penicillin/Streptomycin and 1% nonessential amino acids. Then, cells were washed with freshly prepared buffer B (HBSS 1× (PAA), Hepes 20 mM, MgSO4-7H2O 1 mM, Na2CO3 3.3 mM, CaCl2-2H2O 1.3 mM, 0.5% BSA, Probenecid 2.5 mM) and loaded at 37° C./5% CO2 for 1.5 hours with buffer B containing 1 μM Fluo4AM, 0.1 mg/mL Pluronic Acid, 7 μg/mL Glutamate Pyruvate Transaminase and 2 mM sodium pyruvate. Afterwards cells were washed twice with buffer B and 50 μL of this buffer were added to each well.
Agonist and negative allosteric modulator activities of compounds were consecutively evaluated on the same cells plate. […] Then, the cells were stimulated by an EC80 glutamate concentration and fluorescence was recorded for additional 60 s. EC80 glutamate concentration is the concentration giving 80% of the maximal glutamate response. Agonist and/or negative allosteric modulator activity(ies) were evaluated in comparison to basal signal or signal evoked by EC80 glutamate alone, respectively.
For potency determination, a dose-response test was performed using 8 concentrations of each compound of the invention. Dose-response curves were fitted using the sigmoidal dose-response (variable slope) analysis in GraphPad Prism program (Graph Pad Inc) and EC50 of agonist/IC50 of negative allosteric modulator activity was calculated. Dose-response experiments were all performed in duplicate, two times independently.

T1 sequence (Q14416 19-872): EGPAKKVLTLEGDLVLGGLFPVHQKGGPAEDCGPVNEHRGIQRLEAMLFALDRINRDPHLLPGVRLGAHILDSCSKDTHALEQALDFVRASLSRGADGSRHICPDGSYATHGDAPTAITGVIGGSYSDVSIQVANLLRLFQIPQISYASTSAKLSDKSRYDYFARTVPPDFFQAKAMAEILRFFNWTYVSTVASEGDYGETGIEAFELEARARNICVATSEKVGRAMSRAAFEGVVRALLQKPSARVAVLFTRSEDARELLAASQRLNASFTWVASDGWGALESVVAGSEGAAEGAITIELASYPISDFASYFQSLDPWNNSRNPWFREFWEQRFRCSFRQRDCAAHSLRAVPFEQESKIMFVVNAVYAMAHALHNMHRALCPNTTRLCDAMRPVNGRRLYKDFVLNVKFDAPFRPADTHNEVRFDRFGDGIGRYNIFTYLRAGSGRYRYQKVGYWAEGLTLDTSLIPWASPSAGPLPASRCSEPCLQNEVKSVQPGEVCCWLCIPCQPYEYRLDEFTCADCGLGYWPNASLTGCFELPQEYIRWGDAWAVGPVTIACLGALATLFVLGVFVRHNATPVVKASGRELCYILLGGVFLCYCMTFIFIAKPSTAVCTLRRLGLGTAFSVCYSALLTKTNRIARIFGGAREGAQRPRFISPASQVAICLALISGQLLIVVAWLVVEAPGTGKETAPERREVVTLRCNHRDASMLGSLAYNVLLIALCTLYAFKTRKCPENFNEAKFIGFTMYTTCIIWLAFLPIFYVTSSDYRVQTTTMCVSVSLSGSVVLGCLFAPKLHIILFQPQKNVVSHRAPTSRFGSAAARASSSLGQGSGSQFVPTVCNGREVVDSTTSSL

| Compound | pIC50 |
| --- | --- |
| Cn1c(=O)c2ccc(-c3ccnc(C(F)(F)F)c3)cc2n2nc(-c3ccnc(C(F)(F)F)c3)cc12 [Example 139, 4-Methyl-2,8-bis-(2-trifluoromethyl-pyridin-4-yl)-4H-pyrazolo[1,5-a]quinazolin-5-one] | > 6.00 |
| Cc1cc(-c2ccc3c(=O)n(C)c4cc(C5CCCO5)nn4c3c2)cc(C)n1 (stereo not shown) [Example 107, 8-(2,6-Dimethyl-pyridin-4-yl)-4-methyl-2-(tetrahydro-furan-2-yl)-4H-pyrazolo[1,5-a]quinazolin-5-one] | > 6.00 |
| Cn1c(=O)c2ccc(-c3cccc(S(=O)(=O)NC(C)(C)CO)c3)cc2n2nc(C3CCOCC3)cc12 [Example 101, N-(2-Hydroxy-1,1-dimethyl-ethyl)-3-[4-methyl-5-oxo-2-(tetrahydro-pyran-4-yl)-4,5-dihydro-pyrazolo[1,5-a]quinazolin-8-yl]-benzenesulfonamide] | > 6.00 |
| Cl.Cn1c(=O)c2ccc(-c3ccc(N)nc3)cc2n2nc(-c3ccnc(C(F)(F)F)c3)cc12 [Example 136, 8-(6-Amino-pyridin-3-yl)-4-methyl-2-(2-trifluoromethyl-pyridin-4-yl)-4H-pyrazolo[1,5-a]quinazolin-5-one] | > 6.00 |
| Cn1c(=O)c2ccc(-c3cccc(S(N)(=O)=O)c3)cc2n2nc(C3CCOCC3)cc12 [Example 100, 3-[4-Methyl-5-oxo-2-(tetrahydro-pyran-4-yl)-4,5-dihydro-pyrazolo[1,5-a]quinazolin-8-yl]-benzenesulfonamide] | > 6.00 |
| Cl.Cn1cc(-c2cc3n(C)c(=O)c4ccc(-c5cccnc5)cc4n3n2)cn1 [Example 126, 4-Methyl-2-(1-methyl-1H-pyrazol-4-yl)-8-pyridin-3-yl-4H-pyrazolo[1,5-a]quinazolin-5-one] | > 6.00 |
| CCc1nc(N)ccc1-c1ccc2c(=O)n(C)c3cc(-c4ccccc4)nn3c2c1.Cl [Example 27, 8-(6-Amino-2-ethyl-pyridin-3-yl)-4-methyl-2-phenyl-4H-pyrazolo[1,5-a]quinazolin-5-one] | > 6.00 |
| Cc1cncc(-c2ccc3c(=O)n(C)c4cc(-c5cc(C)nc(C)c5)nn4c3c2)c1 [Example 118, 2-(2,6-Dimethyl-pyridin-4-yl)-4-methyl-8-(5-methyl-pyridin-3-yl)-4H-pyrazolo[1,5-a]quinazolin-5-one] | > 6.00 |
| Cn1c(=O)c2ccc(-c3ccc(N)nc3)cc2n2nc(C(C)(C)C)cc12 [Example 52, 8-(6-Amino-pyridin-3-yl)-2-tert-butyl-4-methyl-4H-pyrazolo[1,5-a]quinazolin-5-one] | > 6.00 |
| Cc1ccc(-c2ccc3c(=O)n(C)c4cc(C5CCOCC5)nn4c3c2)cn1 [Example 95, 4-Methyl-8-(6-methyl-pyridin-3-yl)-2-(tetrahydro-pyran-4-yl)-4H-pyrazolo[1,5-a]quinazolin-5-one] | > 6.00 |
| Cc1cc(-c2cc3n(C)c(=O)c4ccc(-c5ccc(N)nc5)cc4n3n2)cc(C)n1 [Example 112, 8-(6-Amino-pyridin-3-yl)-2-(2,6-dimethyl-pyridin-4-yl)-4-methyl-4H-pyrazolo[1,5-a]quinazolin-5-one] | > 6.00 |
| Cc1cc(-c2cc3n(C)c(=O)c4ccc(-c5cc(C)nc(C)c5)cc4n3n2)ccn1 [Example 133, 8-(2,6-Dimethyl-pyridin-4-yl)-4-methyl-2-(2-methyl-pyridin-4-yl)-4H-pyrazolo[1,5-a]quinazolin-5-one] | > 6.00 |
| CCn1c(=O)c2ccc(-c3cc(C)nc(C)c3)cc2n2nc(C3CCCCCC3)cc12 [Example 78, 2-Cycloheptyl-8-(2,6-dimethyl-pyridin-4-yl)-4-ethyl-4H-pyrazolo[1,5-a]quinazolin-5-one] | > 6.00 |
| Cc1cc(-c2cc3n(C)c(=O)c4ccc(-c5cccnc5C)cc4n3n2)cc(C)n1 [Example 113, 2-(2,6-Dimethyl-pyridin-4-yl)-4-methyl-8-(2-methyl-pyridin-3-yl)-4H-pyrazolo[1,5-a]quinazolin-5-one] | > 6.00 |
| Cc1cc(-c2ccc3c(=O)n(C)c4cc(C5CCOCC5)nn4c3c2)ccn1 [Example 93, 4-Methyl-8-(2-methyl-pyridin-4-yl)-2-(tetrahydro-pyran-4-yl)-4H-pyrazolo[1,5-a]quinazolin-5-one] | > 6.00 |
| Cc1cc(-c2cc3n(C)c(=O)c4ccc(-c5cccnc5)cc4n3n2)cc(C)n1 [Example 116, 2-(2,6-Dimethyl-pyridin-4-yl)-4-methyl-8-pyridin-3-yl-4H-pyrazolo[1,5-a]quinazolin-5-one] | > 6.00 |
| Cc1cc(-c2ccc3c(=O)n(C)c4cc(-c5cc(C)nc(C)c5)nn4c3c2)cc(C)n1 [Example 114, 2,8-Bis-(2,6-dimethyl-pyridin-4-yl)-4-methyl-4H-pyrazolo[1,5-a]quinazolin-5-one] | > 6.00 |
| Cc1cc(-c2cc3n(C)c(=O)c4ccc(-c5cnccc5C)cc4n3n2)cc(C)n1 [Example 119, 2-(2,6-Dimethyl-pyridin-4-yl)-4-methyl-8-(4-methyl-pyridin-3-yl)-4H-pyrazolo[1,5-a]quinazolin-5-one] | > 6.00 |
| Cl.[2H]C([2H])([2H])n1c(=O)c2ccc(-c3cc(C)nc(C)c3)cc2n2nc(C3CCCC3)cc12 [Example 68, 2-Cyclopentyl-8-(2,6-dimethyl-pyridin-4-yl)-4-methyl(D3)-4H-pyrazolo[1,5-a]quinazolin-5-one] | > 6.00 |
| Cn1c(=O)c2ccc(-c3ccc(N)nc3)cc2n2nc(C3CCCCCC3)cc12 [Example 76, 8-(6-Amino-pyridin-3-yl)-2-cycloheptyl-4-methyl-4H-pyrazolo[1,5-a]quinazolin-5-one] | > 6.00 |
| Cl.[2H]C([2H])([2H])n1c(=O)c2ccc(-c3ccc(N)nc3)cc2n2nc(C3CCCC3)cc12 [Example 67, 8-(6-Amino-pyridin-3-yl)-2-cyclopentyl-4-methyl(D3)-4H-pyrazolo[1,5-a]quinazolin-5-one] | > 6.00 |
| Cc1ccc(-c2ccc3c(=O)n(C)c4cc(-c5cc(C)nc(C)c5)nn4c3c2)cn1 [Example 117, 2-(2,6-Dimethyl-pyridin-4-yl)-4-methyl-8-(6-methyl-pyridin-3-yl)-4H-pyrazolo[1,5-a]quinazolin-5-one] | > 6.00 |
| Cc1cc(-c2cc3n(C)c(=O)c4ccc(-c5cccnc5C)cc4n3n2)ccn1 [Example 132, 2-(2-methyl-pyridin-4-yl)-4-methyl-8-(2-methyl-pyridin-3-yl)-4H-pyrazolo[1,5-a]quinazolin-5-one] | > 6.00 |
| Cl.[2H]C([2H])([2H])n1c(=O)c2ccc(-c3ccc(N)nc3)cc2n2nc(CCOC)cc12 [Example 55, 8-(6-Amino-pyridin-3-yl)-2-(2-methoxy-ethyl)-4-methyl(D3)-4H-pyrazolo[1,5-a]quinazolin-5-one] | > 6.00 |
